In patent US12391701B2, “Chromene-based compounds, methods and uses thereof” (University of Minho, priority 2019, dated 2025):
In brackets after ≈: the same amount, converted by molar mass.

Key:
[1] = test system: CAM (chicken chorioallantoic membrane) blood vessels; test: CAM assay, angiogenesis; type: in vivo; conditions: 2× the IC50 value; after 4 days of treatment
Method: In an embodiment, the in vivo capacity of the compounds to inhibit angiogenesis was analysed using the CAM model. To assess the effect on angiogenesis, sterilized 5-mm diameter filter disks were impregnated in culture medium with fixed concentration (2× the IC50 value) of the chromenes MC408 and MC421 or 0.5% DMSO (control group) and were placed onto the vascular area of CAM.
In an embodiment, CAM assay was performed. Fertilized chicken eggs were incubated at 37° C. and at day 3 of development, a window was opened into the eggshell after puncturing the air chamber. The window was sealed with BTK tape and returned to the incubator. On day 9 of development, Hs578t cells (2×10^6 cells) or 786-O cells (3.5×10^6 cells) with Matrigel (10 μL) were placed on CAM, allowing tumor formation and the eggs were tapped and returned to the incubator. At day 14 of development, the tumors were photographed. The treated groups received 20 μL of 2×IC50 concentration of MC408 or MC421 in complete DMEM (for Hs578t cells) or complete RPMI (for 786-O cells) media and the controls received 20 μL of 0.5% DMSO in complete DMEM or RPMI; these were added over the formed tumor. After 72 hours of treatment (day 17 of development), the tumors were photographed again in ovo. Sacrifice of chicken embryos was performed at −80° C. for 10 minutes and the CAM alone was fixed with paraformaldehyde at 4% before being photographed again ex ovo.

[2] = test system: C57BI/6 mice; test: Toxicity in C57BI/6 mice, 2nd trial; type: in vivo; conditions: 3 mg/Kg i.p. daily for 7 days
Method: In an embodiment, the effects of compound treatment on C57BI/6 mice—2nd trial was analysed. […] FIG. 16A is a schematic representation of the experiment timeline. 3-month old female and male animals were used (n=6/group/gender) and injected either with MC408 3 mg/Kg or vehicle (saline, Tween80 and methylcellulose) (i.p.) daily for 7 days. In this trial the number of animals per group was increased and the experiment was conceived to collect blood before and after the treatment. […] Data is presented as mean±SE.

[3] = test system: 786-O cells; test: Annexin V/PI flow cytometry, 786-O; type: cell-based; conditions: IC50 concentration; 24 h
Source text: (§1) In an embodiment, to understand the mechanisms leading to cell death, cells were studied for the induction of apoptosis by flow cytometry. […] Externalization of phosphatidylserine occurs during the early apoptotic events. While annexin V binds to phosphatidylserine, PI stains only cells that have lost their membrane integrity, an experimental procedure which allows the discrimination between viable cells, early apoptotic cells, late apoptotic/necrotic cells or necrotic cells.
(§2) In an embodiment, MCF-7, Hs578t and 786-O cells were seeded in 6-well culture plates and allowed to adhere over 18-20 hours in a complete DMEM (for MCF-7 and Hs578t cells) and complete RPMI (for 786-O cells) medium to detect apoptosis via flow cytometry analysis. […] Triplicates were performed in each experiment. Floating and adherent cells were collected and combined by centrifugation. Elimination of the supernatant was followed by addition of 1 mL of Binding Buffer. 8 μL FITC annexin V (556419, BD Pharmingen) and 30 μl of PI (50 μg/mL, P1304MP, Invitrogen) were added to the cell pellet. Samples were incubated in the dark for 15 min at room temperature. A further 200 μL of Binding Buffer was added to each sample. PI signal was measured using FACS LSRII flow cytometer (BD Biosciences®) with 488 nm excitation laser. […] The percentage of cells in each phase was analysed using the FlowJo 7.6 (Tree Star®) software. […]

[4] = test system: MCF-7 cells; test: Annexin V/PI flow cytometry, MCF-7; type: cell-based, human; conditions: IC50 concentration; 24 h
Source text: as §1, §2

[5] = Highest soluble concentration in C. elegans assay; type: physicochemical; conditions: C. elegans liquid culture medium (S-medium) with 1% DMSO, 20 °C, aqueous buffer, kinetic from dmso stock, read-out: highest soluble concentration possible
Method: The compounds were tested at several concentrations, up to the highest soluble concentration possible −150 μM (MC369, 75 μM) (FIG. 12). […] The rate of food consumption between days 3-5 was used as an indication for worm development, health and fertility and compared to 1% DMSO, (vehicle, not toxic).
In an embodiment, Bristol strain N2 (provided by the CGC, funded by the NIH Office of Research Infrastructure Programs—P40 OD010440) was used to test each compound's toxicity based on a food clearance assay using C. elegans. The assay was performed on 96-well plates in liquid culture (Voisine et al. 2007; Teixeira-Castro et al. 2015). Each well, with a final volume of 60 μL, comprised the following: approximately 20 worms in egg stage, OP50 bacteria to a final OD of 0.6-0.8 (595 nm) and each compound at the appropriate concentration. The worms were grown with continuous shaking at 180 rpm/20° C. (Shel lab Si series incubator) for 7 days and the absorbance (OD595) was measured daily on a microplate reader (Tecan Infinite M200). The effect of the compounds on C. elegans physiology was monitored by the rate at which the E. coli food suspension was consumed (FIG. 14). Age-synchronized worm eggs were obtained by “egg prep” as follows: adult worms were treated with an alkaline hypochlorite solution (20% bleach, 25% 1M NaOH) for 6 minutes, thereafter centrifuged and washed in M9 buffer twice. […]

Row | SMILES | formation of novel blood vessels [1] | pre-existing blood vessels [1] | body weight [2] | induction of cell death by apoptosis (annexin V/PI) [3] | induction of cell death by apoptosis (annexin V/PI) [4] | solubility [5] [µM]
1 | COc1cccc2c1Oc1nc(-c3ccc(Br)cc3)[nH]c1C2 [MC408, 2-(4-bromophenyl)-5-methoxy-3,9-dihydrochromeno[2,3-d]imidazoles] | decreased | disruption | no differences were found | inducing cell death by apoptosis (early apoptosis) | inducing cell death by apoptosis (early apoptosis) | –
2 | COc1cccc2c1Oc1nc(-c3ccc(Br)cc3)[nH]c1C2C1c2cccc(OC)c2Oc2nc(-c3ccc(Br)cc3)[nH]c21 (stereo not shown) [MC421, 2,2′-bis(4-bromophenyl)-5,5′-dimethoxy-1,1,9,9′-tetrahydro-9,9′-bichromeno[2,3-]imidazoles] | decreased | disruption | – | inducing cell death by apoptosis (early apoptosis) | inducing cell death by apoptosis (early apoptosis) | –
3 | COc1cccc2c1Oc1nc(-c3ccccc3F)[nH]c1C2C1c2cccc(OC)c2Oc2nc(-c3ccccc3F)[nH]c21 (stereo not shown) [MC369, 2,2′-bis(2-fluorophenyl)-5,5′-dimethoxy-1,1,9,9′-tetrahydro-9,9′-bichromeno[2,3-]imidazoles] | – | – | – | – | – | 75 (≈ 44.3 µg/mL)
